Measurements as given in publication PMC11940194, “Synthesis, Antiproliferative Activity, and ADME Profiling of Novel Racemic and Optically Pure Aryl-Substituted Purines and Purine Bioisosteres” (Biomolecules, 2025).

Columns and labels:
Assay type in all cases: cell-based, human
[1] = tested on: pancreatic ductal adenocarcinoma (CFPAC-1) cells; assay: Antiproliferative MTT assay, CFPAC-1; conditions: for IC50: Homo sapiens, CFPAC-1, 72 h, 72 h incubation, MTT, mean ± SD; for SI (CFPAC-1): SI = [IC50 HFF]/[IC50 CFPAC-1]
Description: (§1) The human ATCC tumor cell lines breast adenocarcinoma (MCF7), colorectal carcinoma (HT-29), pancreatic ductal adenocarcinoma (CFPAC-1), hepatocellular carcinoma (HepG2), and normal skin fibroblasts (HFF) derived from ATCC (American Type Culture Collection) were cultured in Dulbecco’s Modified Eagle Medium (DMEM) or Minimum Essential Medium (MEM) supplemented with 10% fetal bovine serum (FBS), 2 mM L-glutamine, 100 U/mL penicillin, and 100 µg/mL streptomycin (Lonza, Basel, Switzerland) in a humidified atmosphere with 5% CO2 at 37 °C. For the experiment, carcinoma cell lines and normal human cell lines were seeded in 96-well microtiter plates at a density of 3000 cells per well and 5000 cells per well, respectively, depending on the doubling time of the specific cell line. The test substances were then added at fivefold, tenfold dilutions (0.01 to 100 µM), freshly prepared in the growth medium on the day of testing, and incubated for a further 72 h. After 72 h of incubation, the growth rate of the cells was determined using the MTT assay according to the manufacturer’s guidelines. […] The IC50 values were calculated from the dose–response curves using linear regression analysis. The experiment was performed in tetraplicates in two individual experiments.
(§2) Newly synthesized compounds were evaluated for their cytotoxic activity in vitro against four human cancer cell lines, including human breast adenocarcinoma (MCF-7), ductal pancreatic adenocarcinoma (CFPAC-1), colorectal carcinoma (HT-29), and hepatocellular carcinoma (HepG2), as well as on non-cancerous skin fibroblasts (HFF-1), to check for non-specific toxicity. Furthermore, 5-Fluorouracil (5-FU) was used as a reference drug. The results are expressed as 50% inhibitory concentration (IC50) values and are listed in Table 2, Table 3, Table 4 and Table 5.

[2] = tested on: breast adenocarcinoma (MCF7) cells; assay: Antiproliferative MTT assay, MCF-7; conditions: for IC50: Homo sapiens, MCF7, 72 h incubation, MTT, mean ± SD; for SI (MCF-7): SI = [IC50 HFF]/[IC50 MCF-7]
Description: as §1, §2

[3] = tested on: normal skin fibroblasts (HFF-1); assay: Cytotoxicity MTT assay, normal skin fibroblasts; conditions: Homo sapiens, HFF-1, 72 h, 72 h incubation, mean ± SD
Description: as §1, §2

[4] = tested on: colorectal carcinoma (HT-29) cells; assay: Antiproliferative MTT assay, HT-29; conditions: for IC50: Homo sapiens, HT-29, 72 h, 72 h incubation, MTT, mean ± SD; for SI (HT-29): SI = [IC50 HFF]/[IC50 HT-29]
Description: as §1, §2

[5] = tested on: hepatocellular carcinoma (HepG2) cells; assay: Antiproliferative MTT assay, HepG2; conditions: for IC50: Homo sapiens, HepG2, 72 h, 72 h incubation, MTT, mean ± SD; for SI (HepG2): SI = [IC50 HFF]/[IC50 HepG2]
Description: as §1, §2

Row | IC50 [1] | IC50 [2] | IC50 [4] | IC50 [5] | Compound | SI (CFPAC-1) [1] | SI (MCF-7) [2] | IC50 [3] | SI (HepG2) [5] | SI (HT-29) [4]
1 | 20 ± 0.9 µM | 60 ± 1.2 µM | 27 ± 1.4 µM | 32 ± 6.04 µM | O[C@@H](Cn1cc(Cn2ccc3c(Cl)ncnc32)nn1)c1ccc(F)cc1 [Compound (R)-42b, (R)-4-Chloro-7-((1-(2-hydroxy-2-(4-fluorophenyl)ethyl)-1H-1,2,3-triazol-4-yl)methyl)-7H-pyrrolo[2,3-d]pyrimidine] | 1.2 | 0.4 | 24 ± 2.4 µM |  | 
2 | 27 ± 0.7 µM | 22 ± 3.4 µM | 51 ± 15.3 µM | 65 ± 2.4 µM | OC(Cn1cc(Cn2ccc3ccccc32)nn1)c1ccc(C(F)(F)F)cc1 (stereo not shown) [Compound 30b, 1-((1-(2-Hydroxy-2-(4-(trifluoromethyl)phenyl)ethyl)-1H-1,2,3-triazol-4-yl)methyl)-1H-indol] | 0.7 |  | 18 ± 0.6 µM |  | 
3 | 18 ± 0.8 µM | 21 ± 2.6 µM | 65 ± 12.6 µM | 55 ± 8.8 µM | OC(Cn1cc(Cn2cnc3c(Cl)nccc32)nn1)c1ccc(F)cc1 (stereo not shown) [Compound 47b, 4-Chloro-1-((1-(2-hydroxy-2-(4-fluorophenyl)ethyl)-1H-1,2,3-triazol-4-yl)methyl)-1H-imidazo[4,5-c]pyridine] |  |  | 18 ± 2.9 µM | 0.3 | 
4 | > 100 µM | > 100 µM | > 100 µM | > 100 µM | OC(Cn1cc(Cn2cnc3c(Cl)nccc32)nn1)c1ccc(Cl)cc1 (stereo not shown) [Compound 48b, 4-Chloro-1-((1-(2-hydroxy-2-(4-chlorophenyl)ethyl)-1H-1,2,3-triazol-4-yl)methyl)-1H-imidazo[4,5-c]pyridine] |  |  | > 100 µM |  | 
5 | 27 ± 0.7 µM | 30 ± 0.9 µM | 61 ± 0.7 µM | 59 ± 4.6 µM | OCC(c1ccc(C(F)(F)F)cc1)n1cc(Cn2cnc3ccccc32)nn1 (stereo not shown) [Compound 35a, 1-((1-(2-Hydroxy-1-(4-(trifluoromethyl)phenyl)ethyl)-1H-1,2,3-triazol-4-yl)methyl)-1H-benzimidazole] | >3.7 |  | > 100 µM |  | 
6 | 51 ± 11.7 µM | 58 ± 1.9 µM | 47 ± 16.8 µM | 28 ± 7.5 µM | O[C@H](Cn1cc(Cn2cnc3c(Cl)ncnc32)nn1)c1ccc(Cl)cc1 [Compound (S)-38b] |  |  | 81 ± 1.8 µM | 2.9 | 1.7
7 | > 100 µM | 96 ± 1.8 µM | > 100 µM | > 100 µM | OCC(c1ccc(Cl)cc1)n1cc(Cn2cnc3c(Cl)nccc32)nn1 (stereo not shown) [Compound 48a, 4-Chloro-1-((1-(2-hydroxy-1-(4-chlorophenyl)ethyl)-1H-1,2,3-triazol-4-yl)methyl)-1H-imidazo[4,5-c]pyridine] |  |  | > 100 µM |  | 
8 | 36 ± 8.2 µM | 51 ± 8.9 µM | 56 ± 2.8 µM | 49 ± 13.3 µM | OC(Cn1cc(Cn2cnc3c(Cl)ncnc32)nn1)c1ccc(Cl)cc1 (stereo not shown) [Compound 38b, 6-Chloro-9-((1-(2-hydroxy-2-(4-chlorophenyl)ethyl)-1H-1,2,3-triazol-4-yl)methyl)-9H-purine] |  |  | 31 ± 5.3 µM | 0.6 | 0.6
9 | > 100 µM | > 100 µM | > 100 µM | > 100 µM | OC(Cn1cc(Cn2cnc3ccccc32)nn1)c1ccc(F)cc1 (stereo not shown) [Compound 32b, 1-((1-(2-Hydroxy-2-(4-fluorphenyl)ethyl)-1H-1,2,3-triazol-4-yl)methyl)-1H-benzimidazole] |  |  | > 100 µM |  | 
10 | 43 ± 10.8 µM | 26 ± 8.5 µM | 31 ± 2.2 µM | 23 ± 2.3 µM | O[C@H](Cn1cc(Cn2ccc3c(Cl)ncnc32)nn1)c1ccc(C(F)(F)F)cc1 [Compound (S)-45b, (S)-4-Chloro-7-((1-(2-hydroxy-2-(4-(trifluoromethyl)phenyl)ethyl)-1H-1,2,3-triazol-4-yl)methyl)-7H-pyrrolo[2,3-d]pyrimidin] | 1.0 | 1.7 | 43 ± 3.9 µM |  | 
11 | 49 ± 18.5 µM | 45 ± 7.2 µM | 41 ± 5.6 µM | 41 ± 12.4 µM | O[C@H](Cn1cc(Cn2ccc3c(Cl)ncnc32)nn1)c1ccccc1 [Compound (S)-41b, (S)-4-Chloro-7-((1-(2-hydroxy-2-phenylethyl)-1H-1,2,3-triazol-4-yl)methyl)-7H-pyrrolo[2,3-d]pyrimidine] | 1.2 | 1.3 | 58 ± 3.1 µM |  | 
12 | 34 ± 3.2 µM | 45 ± 5.7 µM | 49 ± 14.6 µM | 38 ± 11 µM | OC(Cn1cc(Cn2ccc3c(Cl)ncnc32)nn1)c1ccc(F)cc1 (stereo not shown) [Compound 42b, 4-Chloro-7-((1-(2-hydroxy-2-(4-fluorophenyl)ethyl)-1H-1,2,3-triazol-4-yl)methyl)-7H-pyrrolo[2,3-d]pyrimidine] | 1.5 | 1.1 | 51 ± 3.6 µM |  | 
13 | 32 ± 5.3 µM | 33 ± 5.8 µM | 48 ± 4.8 µM | 21 ± 0.8 µM | O[C@H](Cn1cc(Cn2cnc3c(Cl)ncnc32)nn1)c1ccccc1 [Compound (S)-36b, (S)-6-Chloro-9-((1-(2-hydroxy-2-phenylethyl)-1H-1,2,3-triazol-4-yl)methyl)-9H-purine] |  |  | > 100 µM | >4.8 | >2.1
14 | 31 ± 5.3 µM | 33 ± 5.8 µM | 33 ± 7.8 µM | 21 ± 0.8 µM | O[C@H](Cn1cc(Cn2ccc3c(Cl)ncnc32)nn1)c1ccc(Cl)cc1 [Compound (S)-43b, (S)-4-Chloro-7-((1-(2-hydroxy-2-(4-chlorophenyl)ethyl)-1H-1,2,3-triazol-4-yl)methyl)-7H-pyrrolo[2,3-d]pyrimidine] | 1.3 | 1.2 | 41 ± 1.1 µM |  | 
15 | 34 ± 2.3 µM | 40 ± 1.8 µM | 63 ± 9.8 µM | 50 ± 12.8 µM | OCC(c1ccc(Cl)cc1)n1cc(Cn2cnc3ccccc32)nn1 (stereo not shown) [Compound 33a, 1-((1-(2-Hydroxy-1-(4-chlorophenyl)ethyl)-1H-1,2,3-triazol-4-yl)methyl)-1H-benzimidazole] | >2.9 |  | > 100 µM |  | 
16 | 49 ± 11.3 µM | 44 ± 17.4 µM | 50 ± 1.3 µM | 50 ± 10.2 µM | OC(Cn1cc(Cn2ccc3c(Cl)ncnc32)nn1)c1ccccc1 (stereo not shown) [Compound 41b, 4-Chloro-7-((1-(2-hydroxy-2-phenylethyl)-1H-1,2,3-triazol-4-yl)methyl)-7H-pyrrolo[2,3-d]pyrimidine] | 0.9 | 1.0 | 44 ± 14.1 µM |  | 
17 | 36 ± 1.3 µM | 31 ± 13.7 µM | 67 ± 2.9 µM | 67 ± 3.5 µM | OC(Cn1cc(Cn2cnc3ccccc32)nn1)c1ccc(C(F)(F)F)cc1 (stereo not shown) [Compound 35b, 1-((1-(2-Hydroxy-2-(4-(trifluoromethyl)phenyl)ethyl)-1H-1,2,3-triazol-4-yl)methyl)-1H-benzimidazole] | 0.6 |  | 22 ± 18.1 µM |  | 
18 | 60 ± 0.9 µM | 53 ± 5.5 µM | 54 ± 7.4 µM | 55 ± 2.4 µM | OCC(c1ccccc1)n1cc(Cn2cnc3c(Cl)ncnc32)nn1 (stereo not shown) [Compound 36a, 6-Chloro-9-((1-(2-hydroxy-1-phenylethyl)-1H-1,2,3-triazol-4-yl)methyl)-9H-purine] |  |  | > 100 µM | >1.8 | >1.9
